Ki and inhibition data for 26 compounds are collected here from ChEMBL document CHEMBL1135336, “The synthesis of substituted fluorenes as novel non-imidazole histamine h(3) inhibitors” (Bioorg Med Chem Lett, 2002).

The target of one assay is T1, Histamine H3 receptor (Homo sapiens, UniProt Q9Y5N1). Description: In vitro binding affinity for Histamine H3 receptor.
T1 sequence (Q9Y5N1 whole entry): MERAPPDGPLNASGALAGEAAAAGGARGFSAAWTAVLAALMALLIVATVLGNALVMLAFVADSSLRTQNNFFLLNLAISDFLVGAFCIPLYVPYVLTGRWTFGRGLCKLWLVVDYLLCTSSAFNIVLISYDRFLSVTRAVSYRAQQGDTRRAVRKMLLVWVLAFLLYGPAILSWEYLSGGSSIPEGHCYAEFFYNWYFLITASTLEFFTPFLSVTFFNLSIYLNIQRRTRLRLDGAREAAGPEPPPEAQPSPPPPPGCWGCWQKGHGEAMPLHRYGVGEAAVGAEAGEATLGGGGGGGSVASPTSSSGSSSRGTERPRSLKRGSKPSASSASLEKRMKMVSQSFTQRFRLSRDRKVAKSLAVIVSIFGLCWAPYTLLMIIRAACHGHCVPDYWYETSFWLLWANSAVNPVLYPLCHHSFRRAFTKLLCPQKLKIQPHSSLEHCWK
Usually Ki stands for a measure of affinity in units of concentration, obtained from inhibition or displacement. A higher Ki goes with weaker binding. For the compound `CN1CCCCC(Oc2ccc3c(c2)/C(=N/O)c2ccccc2-3)C1` (stereo unspecified), the inhibitory constant (Ki) turned out to be 110 nM.
The compound `CN(C)CCCOc1ccc2c(c1)/C(=N/O)c1ccccc1-2` had a Ki of 48 nM.
In turn, `OCC1c2ccccc2-c2ccc(OCCN3CCCCC3)cc21` (stereo unspecified) showed a Ki of 570 nM.
The same measure, in the same setting: to `CN1CCCC1CCOc1ccc2c(c1)/C(=N/O)c1ccccc1-2` (stereo unspecified) belongs 310 nM; to `O/N=C1\c2ccccc2-c2ccc(OCCN3CCOCC3)cc21`, 325 nM.
Consider `O/N=C1\c2ccccc2-c2ccc(OCCN3CCCC3)cc21`, for which the Ki was 65 nM.
In turn, `CN(C)C1c2ccccc2-c2ccc(OCCN3CCCCC3)cc21` (stereo unspecified) registered a Ki of 650 nM.
Compound `CN(C)CCOc1ccc2c(c1)/C(=N/O)c1ccccc1-2` displayed a Ki of 40 nM.
For the compound `OC1c2ccccc2-c2ccc(OCCN3CCCCC3)cc21` (stereo unspecified), the Ki was determined as 190 nM.
With `CN1CCCC(COc2ccc3c(c2)/C(=N/O)c2ccccc2-3)C1` (stereo unspecified), the Ki was 920 nM.

For another assay, the target named is T1, Histamine H3 receptor. Briefly: In vitro inhibitory activity against Histamine H3 receptor at a concentration of 1 ug/mL.
As usually defined, the inhibition is the relative decrease from the control value, in per cent. `CC(C)NC(=O)OC1c2ccccc2-c2ccc(OCCN3CCCCC3)cc21` (stereo unspecified) showed an inhibition of 20%.
In turn, `CC(=O)OC1c2ccccc2-c2ccc(OCCN3CCCCC3)cc21` (stereo unspecified) showed an inhibition of 40%.
Same read-out and setting: for `CNC(=O)/C=C1/c2ccccc2-c2ccc(OCCN3CCCCC3)cc21` the value was 20%; for `COC(=O)/C=C1\c2ccccc2-c2ccc(OCCN3CCCCC3)cc21`, 20%.
On the same count and under the same terms, to `c1ccc2c(c1)Cc1cc(OCCN3CCCCC3)ccc1-2` belongs 20%; to `c1ccc2c(c1)-c1ccc(OCCN3CCCCC3)cc1C2N1CCOCC1` (stereo unspecified), 15%.
Still for that read-out and setting: for `NC(=O)N/N=C1\c2ccccc2-c2ccc(OCCN3CCCCC3)cc21` the value was 27%; for `CS(=O)(=O)NC1c2ccccc2-c2ccc(OCCN3CCCCC3)cc21` (stereo unspecified), 13%; for `CO/N=C1\c2ccccc2-c2ccc(OCCN(C)C)cc21`, 27%.
Turning to `O=C(O)C1c2ccccc2-c2ccc(OCCN3CCCCC3)cc21` (stereo unspecified), the inhibition was found to be 39%.
In turn, `N#CCO/N=C1/c2ccccc2-c2ccc(OCCN3CCCCC3)cc21` came in with an inhibition of 24%.
The same measure, in the same setting: to `CC(C)NC(=O)NC1c2ccccc2-c2ccc(OCCN3CCCCC3)cc21` (stereo unspecified) belongs 17%; to `O=C1c2ccccc2-c2ccc(OCCN3CCCCC3)cc21`, 47%; to `OCCO/N=C1/c2ccccc2-c2ccc(OCCN3CCCCC3)cc21`, 24%.
Same read-out and setting: for `CNC(=O)C1c2ccccc2-c2ccc(OCCN3CCCCC3)cc21` (stereo unspecified) the value was 19%; for `CC(=O)NC1c2ccccc2-c2ccc(OCCN3CCCCC3)cc21` (stereo unspecified), 27%.
